# Experimental data: patent US10172357B2, “Fungicidal composition and method for controlling plant diseases” (ISHIHARA SANGYO KAISHA, LTD., priority 2015, dated 2019)
# Test system: Blumeria graminis
# Experiment: Test on preventive effect against wheat powdery mildew (seed treatment)
# Format: in vivo, Blumeria graminis on wheat (cultivar: Norin-61-go)
# Conditions: seed coating, first leaf, 7 days after inoculation; for Lesion area ratio (%): non-treated plot 90
# From the text: 50 g of wheat seeds (cultivar: Norin-61-go), and predetermined amounts of an aqueous suspension containing pyriofenone 30% (WN) (tradename: PROPERTY FLOWABLE), an aqueous suspension containing fluazinam 50% (WN) (tradename: FROWNCIDE SC) and an aqueous suspension containing thiophanate-methyl 75% (WM) (tradename: TOPSIN M sol) so that the respective active ingredient amounts were as identified in Table 1 (g.a.i./100 kg seed), were put in a plastic bag, sufficiently stirred and air-dried to obtain seeds coated with a fungicidal composition. Ten seeds coated with a fungicidal composition were sown in a plastic pot (diameter: 7.5 cm, height: 6.8 cm, cylindrical black plastic pot, soil: culture soil). Wheat plants were cultivated in a greenhouse and at the 1-leaf stage, conidia of Blumeria graminis were dusted and inoculated, and the wheat plants were maintained in a constant temperature chamber at 20° C. The same operation was conducted with respect to seeds coated with the respective active ingredients individually, for comparison, as shown in Table 1. 7 days after the inoculation, the lesion area ratio on the first leaf was examined, and the control value was calculated based on the following formula. Further, theoretical values (control values) by use in combination were also calculated in accordance with the following Colby's formula. Control value=(1−a/b)×100 • a: lesion area ratio in treated plot • b: lesion area ratio in non-treated plot Colby's formula=(X+Y+Z)−(XY+YZ+ZX)/100+XYZ/10,000 • X: control value of component (a) used singly • Y: control value of component (b) used singly • Z: control value of component (c) used singly
# [1] = thiophanate-methyl 23.3 g.a.i./100 kg seed
# [2] = thiophanate-methyl 35 g.a.i./100 kg seed
# [3] = thiophanate-methyl 70 g.a.i./100 kg seed
# [4] = pyriofenone 30 g.a.i./100 kg seed
# [5] = fluazinam 3.3 g.a.i./100 kg seed
# [6] = fluazinam 10 g.a.i./100 kg seed
compound,measurement,setting,value
"COC(=O)NC(=S)Nc1ccccc1NC(=S)NC(=O)OC [Thiophanate-methyl, 1,2-di-(3-methoxycarbonyl-2-thioureido)benzene]",Control value,[1],0
same,Lesion area ratio (%),[1],90%
same,Control value,[2],33
same,Lesion area ratio (%),[2],60%
same,Control value,[3],44
same,Lesion area ratio (%),[3],50%
"COc1cc(C)c(C(=O)c2c(OC)ncc(Cl)c2C)c(OC)c1OC [Pyriofenone, 3-(2,3,4-trimethoxy-6-methylbenzoyl)-5-chloro-2-methoxy-4-methylpyridine]",Control value,[4],44
same,Lesion area ratio (%),[4],50%
"O=[N+]([O-])c1cc(C(F)(F)F)c(Cl)c([N+](=O)[O-])c1Nc1ncc(C(F)(F)F)cc1Cl [Fluazinam, N-(3-chloro-5-trifluoromethyl-2-pyridyl)-2,6-dinitro-3-chloro-4-trifluoromethylaniline]",Control value,[5],0
same,Lesion area ratio (%),[5],90%
same,Control value,fluazinam 5 g.a.i./100 kg seed,0
same,Lesion area ratio (%),fluazinam 5 g.a.i./100 kg seed,90%
same,Control value,[6],0
same,Lesion area ratio (%),[6],90%
